Measured values: patent US20240190880A1 (THE REGENTS OF THE UNIVERSITY OF MICHIGAN, priority 2021, published 2024)

biological target: T1, ER (Homo sapiens, UniProt P03372); assay: ER degradation activity, in-cell western blot analysis in T47D cells; format: cell-based; details: 16 hours, Table A does not say which cell line (T47D or MCF7), read-out: Potency (DC50)
T1 construct: host or cells: T47D and MCF7 human breast cancer cells
T1 sequence (P03372 1-595): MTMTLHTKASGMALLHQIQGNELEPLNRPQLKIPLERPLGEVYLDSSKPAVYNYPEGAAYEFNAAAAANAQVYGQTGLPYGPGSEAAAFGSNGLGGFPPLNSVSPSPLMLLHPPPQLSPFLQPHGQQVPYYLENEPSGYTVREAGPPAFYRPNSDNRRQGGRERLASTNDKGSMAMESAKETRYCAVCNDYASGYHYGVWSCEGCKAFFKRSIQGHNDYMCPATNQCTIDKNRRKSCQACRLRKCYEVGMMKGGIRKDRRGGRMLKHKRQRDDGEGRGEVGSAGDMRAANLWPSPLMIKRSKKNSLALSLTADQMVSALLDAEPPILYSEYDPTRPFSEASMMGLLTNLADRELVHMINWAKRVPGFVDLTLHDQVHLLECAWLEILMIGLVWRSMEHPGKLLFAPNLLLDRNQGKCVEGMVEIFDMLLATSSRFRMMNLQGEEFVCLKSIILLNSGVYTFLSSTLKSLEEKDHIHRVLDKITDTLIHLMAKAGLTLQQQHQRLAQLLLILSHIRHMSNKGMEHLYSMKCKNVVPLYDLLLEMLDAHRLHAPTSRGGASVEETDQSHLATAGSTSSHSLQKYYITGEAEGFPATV
How it was run: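 In-cell western, T47D; compounds 16 h, 0.5% DMSO final; anti-rabbit-680/anti-mouse-800 secondaries, 1 h RT, dark; read on CLX imager. ER % vs untreated/DMSO wells (100%).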

SMILES	DC50
CN(C1CN(c2ccc([C@@H]3c4ccc(O)cc4CC[C@@H]3c3ccccc3)cc2)C1)[C@H]1CC[C@@H](C(=O)N2Cc3cc4c(cc3C2)C(=O)N(C2CCC(=O)NC2=O)C4)CC1 (single isomer, unassigned) [E 356]	> 100 nM
O=C1CCC(N2C(=O)c3cc4c(cc3C2=O)CN(CC(=O)N2CC3(CCN(c5ccc([C@@H]6c7ccc(O)cc7CC[C@@H]6c6ccccc6)cc5)CC3)C2)C4)C(=O)N1 (mixture of isomers) [E 9, Rac-2-(2,6-dioxopiperidin-3-yl)-6-(2-(7-(4-((1R,2S)-6-hydroxy-2-phenyl-1,2,3,4-tetrahydronaphthalen-1-yl)phenyl)-2,7-diazaspiro[3.5]nonan-2-yl)-2-oxoethyl)-6,7-dihydropyrrolo[3,4-f]isoindole-1,3(2H,5H)-dione]	< 10 nM
O=C1CCC(N2C(=O)c3cc4c(cc3C2=O)CN(CC(=O)N2CCC3(CC2)CCN(c2ccc([C@@H]5c6ccc(O)cc6CCC56CCCC6)cc2)CC3)C4)C(=O)N1 (mixture of isomers) [E 179, Rac-2-(2,6-dioxopiperidin-3-yl)-6-(2-(9-(4-((R)-6′-hydroxy-3′,4′-dihydro-1′H-spiro[cyclopentane-1,2′-naphthalen]-1′-yl)phenyl)-3,9-diazaspiro[5.5]undecan-3-yl)-2-oxoethyl)-6,7-dihydropyrrolo[3,4-f]isoindole-1,3(2H,5H)-dione]	10 to 100 nM
C[C@@H]1Cc2c([nH]c3ccccc23)[C@@H](c2c(F)cc(N3CCC4(CN(C(=O)CN5Cc6cc7c(cc6C5)C(=O)N(C5CCC(=O)NC5=O)C7)C4)C3)cc2F)N1CC(F)F (stereo partly drawn) [E 72, 3-(6-(2-(6-(4-((1R,3R)-2-(2,2-difluoroethyl)-3-methyl-2,3,4,9-tetrahydro-1H-pyrido[3,4-b]indol-1-yl)-3,5-difluorophenyl)-2,6-diazaspiro[3.4]octan-2-yl)-2-oxoethyl)-1-oxo-3,5,6,7-tetrahydropyrrolo[3,4-f]isoindol-2(1H)-yl)piperidine-2,6-dione]	< 10 nM
CCC(=C(c1ccc(O)cc1)c1ccc(N2CCC3(CCN(C(=O)CN4Cc5cc6c(cc5C4)C(=O)N(C4CCC(=O)NC4=O)C6=O)CC3)CC2)cc1)c1ccccc1 (centres unmarked) [E 188, 2-(2,6-dioxopiperidin-3-yl)-6-(2-(9-(4-(1-(4-hydroxyphenyl)-2-phenylbut-1-en-1-yl)phenyl)-3,9-diazaspiro[5.5]undecan-3-yl)-2-oxoethyl)-6,7-dihydropyrrolo[3,4-f]isoindole-1,3(2H,5H)-dione]	10 to 100 nM
C[C@@H]1Cc2c([nH]c3ccccc23)[C@@H](c2c(F)cc(N3CCC4(CC3)CC(C(=O)N3CCC(CN5Cc6cc7c(cc6C5)C(=O)N(C5CCC(=O)NC5=O)C7=O)CC3)C4)cc2F)N1CC(F)F (stereo partly drawn) [E 99, 6-((1-(7-(4-((1R,3R)-2-(2,2-difluoroethyl)-3-methyl-2,3,4,9-tetrahydro-1H-pyrido[3,4-b]indol-1-yl)-3,5-difluorophenyl)-7-azaspiro[3.5]nonane-2-carbonyl)piperidin-4-yl)methyl)-2-(2,6-dioxopiperidin-3-yl)-6,7-dihydropyrrolo[3,4-f]isoindole-1,3(2H,5H)-dione]	10 to 100 nM
O=C1CCC(N2C(=O)c3cc4c(cc3C2=O)CN(CC(=O)N2CC3(CCN(c5ccc([C@@H]6c7ccc(O)cc7CC[C@@H]6c6ccc(F)cc6)cc5)CC3)C2)C4)C(=O)N1 (mixture of isomers) [E 19, Rac-2-(2,6-dioxopiperidin-3-yl)-6-(2-(7-(4-((1R,2S)-2-(4-fluorophenyl)-6-hydroxy-1,2,3,4-tetrahydronaphthalen-1-yl)phenyl)-2,7-diazaspiro[3.5]nonan-2-yl)-2-oxoethyl)-6,7-dihydropyrrolo[3,4-f]isoindole-1,3(2H,5H)-dione]	< 10 nM
C[C@@H]1Cc2c([nH]c3ccccc23)[C@@H](c2c(F)cc(N3CCC(CN4Cc5cc6c(cc5C4)C(=O)N(C4CCC(=O)NC4=O)C6)CC3)cc2F)N1CC(F)F (stereo partly drawn) [E 147, 3-(6-((1-(4-((1R,3R)-2-(2,2-difluoroethyl)-3-methyl-2,3,4,9-tetrahydro-1H-pyrido[3,4-b]indol-1-yl)-3,5-difluorophenyl)piperidin-4-yl)methyl)-1-oxo-3,5,6,7-tetrahydropyrrolo[3,4-f]isoindol-2(1H)-yl)piperidine-2,6-dione]	> 100 nM
C[C@@H]1Cc2cc(O)ccc2[C@@H](c2c(F)cc(N3CCC(N4CCC(C(=O)N5Cc6cc7c(cc6C5)C(=O)N(C5CCC(=O)NC5=O)C7)CC4)CC3)cc2F)N1CC(C)(F)F (stereo partly drawn) [E 30, 3-(6-(1′-(4-((1S,3R)-2-(2,2-difluoropropyl)-6-hydroxy-3-methyl-1,2,3,4-tetrahydroisoquinolin-1-yl)-3,5-difluorophenyl)-[1,4′-bipiperidine]-4-carbonyl)-1-oxo-3,5,6,7-tetrahydropyrrolo[3,4-f]isoindol-2(1H)-yl)piperidine-2,6-dione]	> 100 nM
C[C@H]1CC2(CCN(CC(=O)N3Cc4cc5c(cc4C3)C(=O)N(C3CCC(=O)NC3=O)C5=O)CC2)CN1c1ccc([C@@H]2c3ccc(O)cc3CC[C@@H]2c2ccccc2)cc1 (mixture of isomers) [E 144, Rac-2-(2,6-dioxopiperidin-3-yl)-6-(2-((S)-2-(4-((1R,2S)-6-hydroxy-2-phenyl-1,2,3,4-tetrahydronaphthalen-1-yl)phenyl)-3-methyl-2,8-diazaspiro[4.5]decan-8-yl)acetyl)-6,7-dihydropyrrolo[3,4-f]isoindole-1,3(2H,5H)-dione]	> 100 nM
O=C1CCC(N2C(=O)c3cc4c(cc3C2=O)CN(CC(=O)N2CC3(C2)CN(c2ccc([C@@H]5c6ccc(O)cc6CC[C@@H]5c5ccccc5)cc2)C3)C4)C(=O)N1 (mixture of isomers) [E 8, 2-(2,6-dioxopiperidin-3-yl)-6-(2-(6-(4-((1R,2S)-6-hydroxy-2-phenyl-1,2,3,4-tetrahydronaphthalen-1-yl)phenyl)-2,6-diazaspiro[3.3]heptan-2-yl)-2-oxoethyl)-6,7-dihydropyrrolo[3,4-f]isoindole-1,3(2H,5H)-dione]	10 to 100 nM

same assay, conditions: compounds 16 hours, Table A does not say whether T47D or MCF7, read-out: Potency (DC50)

SMILES	DC50
C[C@@H]1Cc2cc(O)ccc2[C@@H](c2ccc(C3=CCC4(CC3)CCN(C(=O)CN3Cc5cc6c(cc5C3)C(=O)N(C3CCC(=O)NC3=O)C6=O)CC4)cc2)N1CC(F)F (stereo partly drawn) [E 448, 6-(2-(9-(4-((1R,3R)-2-(2,2-difluoroethyl)-6-hydroxy-3-methyl-1,2,3,4-tetrahydroisoquinolin-1-yl)phenyl)-3-azaspiro[5.5]undec-8-en-3-yl)-2-oxoethyl)-2-(2,6-dioxopiperidin-3-yl)-6,7-dihydropyrrolo[3,4-f]isoindole-1,3(2H,5H)-dione]	> 100 nM
O=C1CCC(N2C(=O)c3cc4c(cc3C2=O)CN(CC(=O)N2CCC3(CC2)CN(C(=O)c2ccc([C@@H]5c6ccc(O)cc6CC[C@@H]5c5ccccc5)cc2)C3)C4)C(=O)N1 (stereo partly drawn) [E 496, 2-(2,6-dioxopiperidin-3-yl)-6-(2-(2-(4-((1R,2S)-6-hydroxy-2-phenyl-1,2,3,4-tetrahydronaphthalen-1-yl)benzoyl)-2,7-diazaspiro[3.5]nonan-7-yl)-2-oxoethyl)-6,7-dihydropyrrolo[3,4-f]isoindole-1,3(2H,5H)-dione]	> 100 nM
C[C@@H]1Cc2cc(O)ccc2[C@@H](c2c(F)cc(N3CCC(C(=O)N4CCC(N5Cc6cc7c(cc6C5)C(=O)N(C5CCC(=O)NC5=O)C7=O)CC4)CC3)cc2F)N1CC(F)F (stereo partly drawn) [E 463, 6-(1-(1-(4-((1S,3R)-2-(2,2-difluoroethyl)-6-hydroxy-3-methyl-1,2,3,4-tetrahydroisoquinolin-1-yl)-3,5-difluorophenyl)piperidine-4-carbonyl)piperidin-4-yl)-2-(2,6-dioxopiperidin-3-yl)-6,7-dihydropyrrolo[3,4-f]isoindole-1,3(2H,5H)-dione]	< 10 nM
